From ChEMBL document CHEMBL1143172, “Profiling Protein Arginine Deiminase 4 (PAD4): a novel screen to identify PAD4 inhibitors” (Bioorg Med Chem, 2008)

Assays:
[1] = target: T1, Protein-arginine deiminase type-4 (Homo sapiens, UniProt Q9UM07); experiment: Inhibition of PAD4 by ABPP-based assay
[2] = target: T1, Protein-arginine deiminase type-4; experiment: Inhibition of PAD4 measured by intercept plot of Lineweaver-Burke analyses
[3] = target: T1, Protein-arginine deiminase type-4; experiment: Inhibition of PAD4 measured by slope plot of Lineweaver-Burke analyses

T1 sequence (Q9UM07 whole entry): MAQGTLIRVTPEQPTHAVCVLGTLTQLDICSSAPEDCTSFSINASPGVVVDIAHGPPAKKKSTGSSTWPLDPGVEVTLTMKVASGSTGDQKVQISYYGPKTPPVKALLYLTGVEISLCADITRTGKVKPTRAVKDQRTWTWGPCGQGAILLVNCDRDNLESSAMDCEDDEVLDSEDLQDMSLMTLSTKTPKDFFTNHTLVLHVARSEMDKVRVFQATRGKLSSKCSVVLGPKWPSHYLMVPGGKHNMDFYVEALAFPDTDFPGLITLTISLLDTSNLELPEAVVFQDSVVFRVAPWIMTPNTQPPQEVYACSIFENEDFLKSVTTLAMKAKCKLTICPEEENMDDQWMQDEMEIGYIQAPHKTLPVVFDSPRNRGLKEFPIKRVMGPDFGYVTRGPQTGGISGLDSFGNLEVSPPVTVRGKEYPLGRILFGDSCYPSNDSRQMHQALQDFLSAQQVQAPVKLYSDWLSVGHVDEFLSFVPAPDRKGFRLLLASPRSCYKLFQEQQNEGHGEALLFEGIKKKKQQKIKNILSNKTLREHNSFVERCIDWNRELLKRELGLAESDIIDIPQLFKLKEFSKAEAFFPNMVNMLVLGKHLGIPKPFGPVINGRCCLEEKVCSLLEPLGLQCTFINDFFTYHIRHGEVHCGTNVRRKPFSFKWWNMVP

Row | IC50 [1] [µM] | Ki [2] [µM] | Ki [3] [µM] | Structure (SMILES)
1 | > 10000 | – | – | CN(Cc1cnc2nc(N)nc(N)c2n1)c1ccc(C(=O)N[C@@H](CCC(=O)O)C(=O)O)cc1 [METHOTREXATE]
2 | 8100 | – | – | Cn1cnc([N+](=O)[O-])c1Sc1ncnc2nc[nH]c12 [AZATHIOPRINE]
3 | 2400 | – | – | Cc1oncc1C(=O)Nc1ccc(C(F)(F)F)cc1 [LEFLUNOMIDE]
4 | 620 | 630 | 180 | CN(C)c1ccc(O)c2c1C[C@H]1CC3[C@H](N(C)C)C(O)=C(C(N)=O)C(=O)C3(O)C(O)=C1C2=O (single isomer, unassigned) [MINOCYCLINE]
5 | > 10000 | – | – | CC[C@H]1OC(=O)[C@H](C)[C@@H](O[C@H]2C[C@@](C)(OC)[C@@H](O)[C@H](C)O2)[C@H](C)[C@@H](O[C@@H]2O[C@H](C)C[C@H](N(C)C)[C@H]2O)[C@](C)(O)C[C@@H](C)CN(C)[C@H](C)[C@@H](O)[C@]1(C)O [AZITHROMYCIN]

Row | Structure (SMILES) | IC50 [1] [µM] | Ki [2] [µM] | Ki [3] [µM]
6 | Cc1cc(NS(=O)(=O)c2ccc(N)cc2)no1 [SULFAMETHOXAZOLE] | > 10000 | – | –
7 | CN(C)[C@@H]1C(O)=C(C(N)=O)C(=O)[C@@]2(O)C(O)=C3C(=O)c4c(O)cccc4[C@@](C)(O)[C@H]3C[C@@H]12 [TETRACYCLINE] | 780 | – | –
